# Test results as given in patent publication US20250066389A1, “HETEROCYCLIC AMIDES AND METHODS OF USING THE SAME” (Rgenta Therapeutics, Inc., priority 2021, published 2025).
# Where a name gives a salt, the structure may show the parent alone.
# Test system: PMS1
# Test: Mini-Gene Reporter Assay—PMS1 (firefly luciferase mini-gene reporter transiently transfected into HEK293 cells)
# Format: cell-based
# Settings: Homo sapiens; at 5 uM; mini-gene firefly luciferase reporter in HEK293 cells; read-out: PMS1 % Effect at 5 uM
# Excerpt: Example 76. Mini-Gene Reporter Assay—PMS1
# Mini-gene reporter constructs for each target site can be constructed by first PCR amplifying the region-of-interest including the sequence of the alternatively skipped, sequences of the immediate upstream and downstream introns, and sequences of the immediate upstream and downstream exons. Then the 3′ end of the amplified sequence can be ligated to a firefly luciferase reporter gene and cloned into the pcDNA3.1 vector backbone. The final reporter construct can be transiently transfected into HEK293 cells using Lipofectamine 3000 transfection reagents. Compounds that can induce the inclusion of the skipped exon in the reporter construct would increase the reporter firefly luciferase activity.
# Test compounds may be diluted in duplicates and dispensed into an assay plate. Transient mini-gene reporter cell line stock is resuspended and dispensed into the assay plate. Assay plates are then centrifuged and incubated. A luciferase reagent (e.g. ONE-Glo firefly luciferase reagent from Promega®) may be added to the assay plate and the luminescence (RLU) signals recorded. EC50 values may be determined by curve fitting in Levenberg-Marquardt algorithm.
# In Table D below, A indicates a IC50 (μM)<1 μM, B indicates a IC50 (μM) 1 μM to <10 μM, and C indicates a IC50 (μM) 10 μM to <50 μM. In Table D below, A indicates a >75% Effect at 5 μM μM. B indicates a 50 to <75% Effect at 5 μM μM, and C indicates a <50% Effect at 5 μM.
row,Structure (SMILES),activation at 5 µM
1,"CCOc1cc2nc(C)cn2cc1C(=O)Nc1ccc(N2CC[C@H](NC)C2)nn1 (single isomer, unassigned) [Compound 706]",> 75%
2,"CCOc1cc2nc(C)cn2cc1C(=O)Nc1ccc(N2CC[C@@H](NC)C2)nn1 (single isomer, unassigned) [Compound 707]",> 75%
3,"Cc1cn2cc(C(=O)Nc3ccc(N4CCNCC4)cc3F)ncc2n1 [Compound 101, N-(2-fluoro-4-(piperazin-1-yl)phenyl)-2-methylimidazo[1,2-a]pyrazine-6-carboxamide HCl Salt]",< 50%
4,"Cc1cn2cc(C(=O)Nc3ccc(N4CCNCC4)cc3)ncc2n1 [Compound 102, 2-methyl-N-(4-(piperazin-1-yl)phenyl)imidazo[1,2-a]pyrazine-6-carboxamide]",< 50%
5,"Cc1cn2cc(C(=O)Nc3ccc(N4CCNCC4)nc3)ncc2n1 [Compound 103, 2-methyl-N-(6-(piperazin-1-yl)pyridin-3-yl)imidazo[1,2-a]pyrazine-6-carboxamide]",< 50%
6,"Cc1cn2cc(C(=O)Nc3ccc(N4CCN[C@H](C)C4)nc3)ncc2n1 [Compound 104, hydrochloride]",< 50%
7,"Cc1cn2cc(C(=O)Nc3ccc(N4CCN[C@H](C)C4)cc3F)ncc2n1 [Compound 105, (R)—N-(2-fluoro-4-(3-methylpiperazin-1-yl)phenyl)-2-methylimidazo[1,2-a]pyrazine-6-carboxamide hydrochloride]",< 50%
8,"Cc1cn2cc(C(=O)Nc3ccc(N4C[C@H]5CC[C@@H](C4)N5)cc3F)ncc2n1 [Compound 106, N-(4-((1R,5S)-3,8-diazabicyclo[3.2.1]octan-3-yl)-2-fluorophenyl)-2-methylimidazo[1,2-a]pyrazine-6-carboxamide]",< 50%
9,"Cc1cn2cc(C(=O)Nc3ccc(N4CCN[C@@H](C)C4)cn3)cc(F)c2n1 [Compound 107, (S)-8-fluoro-2-methyl-N-(5-(3-methylpiperazin-1-yl)pyridin-2-yl)imidazo[1,2-a]pyridine-6-carboxamide TFA Salt]",50 to 75%
10,"Cc1cn2cc(C(=O)Nc3ccc(N4CCNCC4)cc3F)nc(C)c2n1 [Compound 109, N-(2-fluoro-4-(piperazin-1-yl)phenyl)-2,8-dimethylimidazo[1,2-a] pyrazine-6-carboxamide hydrochloride]",> 75%
11,"COc1c(C(=O)Nc2ccc(N3CCNCC3)cn2)cn2cc(C)nc2c1C [Compound 112, 7-methoxy-2,8-dimethyl-N-(5-(piperazin-1-yl)pyridin-2-yl)imidazo[1,2-a]pyridine-6-carboxamide]",< 50%
12,"COc1cc2nn(C)cc2cc1C(=O)Nc1ccc(N2CC3(CNC3)C2)cc1F [Compound 116, N-(2-fluoro-4-(2,6-diazaspiro[3.3]heptan-2-yl)phenyl)-6-methoxy-2-methyl-2H-indazole-5-carboxamide TFA Salt]",< 50%
13,"COc1cc2nn(C)cc2cc1C(=O)Nc1ccc(N2CC3CNCC3C2)cc1F (stereo not shown) [Compound 117, N-(2-fluoro-4-(hexahydropyrrolo[3,4-c]pyrrol-2(1H)-yl)phenyl)-6-methoxy-2-methyl-2H-indazole-5-carboxamide]",< 50%
14,"Cc1cn2cc(C(=O)Nc3ccc(N4CCNCC4)nc3)cc(F)c2n1 [Compound 121, 8-fluoro-2-methyl-N-(6-(piperazin-1-yl)pyridin-3-yl)imidazo[1,2-a]pyridine-6-carboxamide]",< 50%

# Same assay, conditions: Homo sapiens; mini-gene firefly luciferase reporter in HEK293 cells
row,Structure (SMILES),IC50
1,CCOc1cc2nc(C)cn2cc1C(=O)Nc1ccc(N2C[C@H]3CNCC[C@H]32)nn1 (racemic) [Compound 239],1000 to 10000 nM
2,CCOc1cc2nc(C)cn2cc1C(=O)Nc1ccc(N2CC[C@@H]3CNC[C@@H]3C2)nn1 (racemic) [Compound 246],1000 to 10000 nM
3,"COc1cc2nc(C)cn2cc1C(=O)Nc1ccc(N2CCNCC2)cc1F [Compound 111, N-(2-fluoro-4-(piperazin-1-yl)phenyl)-7-methoxy-2-methylimidazo [1,2-a]pyridine-6-carboxamide hydrogen chloride]",< 1000 nM
4,"COc1cc2nc(C)cn2cc1C(=O)Nc1ccc(N2CCNCC2)nc1 [Compound 119, 7-methoxy-2-methyl-N-[6-(piperazin-1-yl)pyridin-3-yl]imidazo[1,2-a]pyridine-6-carboxamide]",1000 to 10000 nM
5,"Cc1cn2cc(C(=O)Nc3ccc(N4CCN[C@@H](C)C4)nn3)c(OC3CCC3)cc2n1 [Compound 122, (S)-7-cyclobutoxy-2-methyl-N-(6-(3-methylpiperazin-1-yl)pyridazin-3-yl)imidazo[1,2-a]pyridine-6-carboxamide hydrochloride]",< 1000 nM
6,"Cc1cn2cc(C(=O)Nc3ccc(N4CCNCC4)cn3)c(OC3CCC3)cc2n1 [Compound 128, 7-cyclobutoxy-2-methyl-N-(5-(piperazin-1-yl)pyridin-2-yl) imidazo[1,2-a]pyridine-6-carboxamide hydrochloride]",< 1000 nM

# Now from value to compound:
row,IC50,Structure (SMILES)
1,< 1000 nM,"COc1cc2nc(C)cn2cc1C(=O)Nc1ccc(N2CCN[C@@H]3CC[C@@H]32)cc1F (racemic) [Compound 174, rac-N-(4-((1R,6S)-2,5-diazabicyclo[4.2.0]octan-2-yl)-2-fluorophenyl)-7-methoxy-2-methylimidazo[1,2-a]pyridine-6-carboxamide]"
2,1000 to 10000 nM,CCOc1cc2nc(C)cn2cc1C(=O)Nc1ccc(N2CC[C@@H]3NCCC[C@@H]3C2)nn1 (racemic) [Compound 241]
3,1000 to 10000 nM,CCOc1cc2nc(C)cn2cc1C(=O)Nc1ccc(N2CCC[C@H]3NCC[C@H]32)nn1 (racemic) [Compound 252]
4,1000 to 10000 nM,CCOc1cc2nc(C)cn2cc1C(=O)Nc1ccc(N2C[C@@H]3CNC[C@]3(C)C2)nn1 (racemic) [Compound 253]
5,1000 to 10000 nM,CCOc1cc2nc(C)cn2cc1C(=O)Nc1ccc(N2CC[C@@H]3NCC[C@@H]3C2)nn1 (racemic) [Compound 261]
6,1000 to 10000 nM,"Cc1cn2cc(C(=O)Nc3ccc(N4CCNCC4)cc3F)cc(F)c2n1 [Compound 108, 8-fluoro-N-(2-fluoro-4-(piperazin-1-yl)phenyl)-2-methylimidazo[1,2-a]pyridine-6-carboxamide hydrochloride]"
7,< 1000 nM,"COc1cc2nc(C)cn2cc1C(=O)Nc1ccc(N2CCNCC2)cn1 [Compound 110, 7-methoxy-2-methyl-N-(5-(piperazin-1-yl)pyridin-2-yl)imidazo[1,2-a]pyridine-6-carboxamide HCl Salt]"
8,1000 to 10000 nM,"COc1cc2nn(C)cc2cc1C(=O)Nc1ccc(N2CCNCC2)cn1 [Compound 113, 6-methoxy-2-methyl-N-(5-(piperazin-1-yl)pyridin-2-yl)-2H-indazole-5-carboxamide HCl Salt]"
9,< 1000 nM,"COc1cc2nn(C)cc2cc1C(=O)Nc1ccc(N2CCN[C@@H](C)C2)cc1F [Compound 114, (S)—N-(2-fluoro-4-(3-methylpiperazin-1-yl)phenyl)-6-methoxy-2-methyl-2H-indazole-5-carboxamide HCl Salt]"
10,< 1000 nM,"COc1cc2nn(C)cc2cc1C(=O)Nc1ccc(N2CCNCC2)cc1F [Compound 115, N-(2-fluoro-4-(piperazin-1-yl)phenyl)-6-methoxy-2-methyl-2H-indazole-5-carboxamide HCl Salt]"
11,< 1000 nM,"COc1cc2nc(C)cn2cc1C(=O)Nc1ccc(N2CCNCC2)nn1 [Compound 118, 7-methoxy-2-methyl-N-[6-(piperazin-1-yl)pyridazin-3-yl]imidazo[1,2-a]pyridine-6-carboxamide]"
12,1000 to 10000 nM,"COc1cc2nc(C)cn2cc1C(=O)Nc1cnc(N2CCNCC2)nc1 [Compound 120, 7-methoxy-2-methyl-N-(2-(piperazin-1-yl)pyrimidin-5-yl)imidazo[1,2-a]pyridine-6-carboxamide]"
13,1000 to 10000 nM,"COc1cc2nn(C)cc2cc1C(=O)Nc1ccc(N2CCNCC2)nn1 [Compound 123, 6-methoxy-2-methyl-N-(6-(piperazin-1-yl)pyridazin-3-yl)-2H-indazole-5-carboxamide hydrochloride]"
14,1000 to 10000 nM,"Cc1cn2cc(C(=O)Nc3ccc(N4CCN[C@@H](C)C4)nn3)nc(C)c2n1 [Compound 124, (S)-2,8-dimethyl-N-(6-(3-methylpiperazin-1-yl)pyridazin-3-yl)imidazo[1,2-a]pyrazine-6-carboxamide hydrochloride]"
15,< 1000 nM,"COc1cc2nn(C)cc2cc1C(=O)Nc1ccc(N2CCN[C@@H](C)C2)nn1 [Compound 125, (S)-6-methoxy-2-methyl-N-(6-(3-methylpiperazin-1-yl)pyridazin-3-yl)-2H-indazole-5-carboxamide hydrochloride]"
16,< 1000 nM,"CCOc1cc2nc(C)cn2cc1C(=O)Nc1ccc(N2CCNCC2)cc1F [Compound 126, 7-ethoxy-N-(2-fluoro-4-(piperazin-1-yl)phenyl)-2-methylimidazo[1,2-a]pyridine-6-carboxamide]"
17,1000 to 10000 nM,"COc1c(C(=O)Nc2ccc(N3CCNCC3)cc2F)cn2cc(C)nc2c1C [Compound 127, N-(2-fluoro-4-(piperazin-1-yl)phenyl)-7-methoxy-2,8-dimethylimidazo[1,2-a]pyridine-6-carboxamide]"
